Source: the kinase profiling compilation of Christmann-Franck et al. (2016)

Legend:
Test in all cases: radiometric filter-binding kinase assay, Kinase HotSpot
Conditions in all cases: compound 0.5 µM; ATP 10 µM
MAPK8 (human) = MAPK8 (human) (UniProt P45983)
MET (human) = MET (human) (UniProt P08581)
LTK (human) = LTK (human) (UniProt P29376)
TAOK2 (human) = TAOK2 (human) (UniProt Q9UL54)
STK24 (human) = STK24 (human) (UniProt Q9Y6E0)
IGF1R (human) = IGF1R (human) (UniProt P08069)
CSNK1E (human) = CSNK1E (human) (UniProt P49674)
LCK (human) = LCK (human) (UniProt P06239)
FER (human) = FER (human) (UniProt P16591)
AXL (human) = AXL (human) (UniProt P30530)
MAP4K2 (human) = MAP4K2 (human) (UniProt Q12851)
PASK (human) = PASK (human) (UniProt Q96RG2)
CLK4 (human) = CLK4 (human) (UniProt Q9HAZ1)
CDK4 CCND3 (human) = CDK4 CCND3 (human) (UniProt P30281+P11802)
ULK1 (human) = ULK1 (human) (UniProt O75385)
STK39 (human) = STK39 (human) (UniProt Q9UEW8)
PRKCD (human) = PRKCD (human) (UniProt Q05655)
PTK2B (human) = PTK2B (human) (UniProt Q14289)
PAK7 (human) = PAK7 (human) (UniProt Q9P286)
PRKX (human) = PRKX (human) (UniProt P51817)
CDK7 CCNH MNAT1 (human) = CDK7 CCNH MNAT1 (human) (UniProt P50613+P51948+P51946)
AKT2 (human) = AKT2 (human) (UniProt P31751)
OXSR1 (human) = OXSR1 (human) (UniProt O95747)
MAPK12 (human) = MAPK12 (human) (UniProt P53778)
PRKCB2 (human) = PRKCB2 (human) (UniProt P05771)
MAPKAPK3 (human) = MAPKAPK3 (human) (UniProt Q16644)
MUSK (human) = MUSK (human) (UniProt O15146)
SRC (human) = SRC (human) (UniProt P12931)
STK16 (human) = STK16 (human) (UniProt O75716)
PAK1 (human) = PAK1 (human) (UniProt Q13153)
TSSK1B (human) = TSSK1B (human) (UniProt Q9BXA7)
RPS6KB1 (human) = RPS6KB1 (human) (UniProt P23443)
MAP3K11 (human) = MAP3K11 (human) (UniProt Q16584)
CDK1 CCNA2 (human) = CDK1 CCNA2 (human) (UniProt P06493+P20248)
BRAF (human) = BRAF (human) (UniProt P15056)

AXL (human), sequence (P30530 whole entry, looked up): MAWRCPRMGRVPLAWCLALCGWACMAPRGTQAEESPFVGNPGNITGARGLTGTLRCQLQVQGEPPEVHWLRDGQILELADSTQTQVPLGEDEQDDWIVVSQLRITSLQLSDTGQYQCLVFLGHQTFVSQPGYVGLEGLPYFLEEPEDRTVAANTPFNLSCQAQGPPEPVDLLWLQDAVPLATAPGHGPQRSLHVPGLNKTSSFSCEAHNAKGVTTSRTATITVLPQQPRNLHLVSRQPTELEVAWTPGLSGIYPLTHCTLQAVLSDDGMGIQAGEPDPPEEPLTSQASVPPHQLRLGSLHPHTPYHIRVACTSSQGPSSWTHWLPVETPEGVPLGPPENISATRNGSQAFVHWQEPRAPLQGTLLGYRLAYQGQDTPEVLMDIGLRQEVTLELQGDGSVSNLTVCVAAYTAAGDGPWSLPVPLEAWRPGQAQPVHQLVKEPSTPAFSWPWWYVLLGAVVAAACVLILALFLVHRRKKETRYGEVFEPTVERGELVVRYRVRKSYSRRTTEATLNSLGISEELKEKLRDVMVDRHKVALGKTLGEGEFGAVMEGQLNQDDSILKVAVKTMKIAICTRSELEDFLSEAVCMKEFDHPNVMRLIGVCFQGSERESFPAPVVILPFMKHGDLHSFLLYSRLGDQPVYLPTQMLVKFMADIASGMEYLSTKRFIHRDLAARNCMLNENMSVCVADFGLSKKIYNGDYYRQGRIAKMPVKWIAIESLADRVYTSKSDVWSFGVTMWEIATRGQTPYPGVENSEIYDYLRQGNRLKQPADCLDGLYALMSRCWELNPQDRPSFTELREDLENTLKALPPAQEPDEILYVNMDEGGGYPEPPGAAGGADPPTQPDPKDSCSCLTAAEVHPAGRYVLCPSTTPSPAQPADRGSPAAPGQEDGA
TAOK2 (human), sequence (Q9UL54 whole entry, looked up): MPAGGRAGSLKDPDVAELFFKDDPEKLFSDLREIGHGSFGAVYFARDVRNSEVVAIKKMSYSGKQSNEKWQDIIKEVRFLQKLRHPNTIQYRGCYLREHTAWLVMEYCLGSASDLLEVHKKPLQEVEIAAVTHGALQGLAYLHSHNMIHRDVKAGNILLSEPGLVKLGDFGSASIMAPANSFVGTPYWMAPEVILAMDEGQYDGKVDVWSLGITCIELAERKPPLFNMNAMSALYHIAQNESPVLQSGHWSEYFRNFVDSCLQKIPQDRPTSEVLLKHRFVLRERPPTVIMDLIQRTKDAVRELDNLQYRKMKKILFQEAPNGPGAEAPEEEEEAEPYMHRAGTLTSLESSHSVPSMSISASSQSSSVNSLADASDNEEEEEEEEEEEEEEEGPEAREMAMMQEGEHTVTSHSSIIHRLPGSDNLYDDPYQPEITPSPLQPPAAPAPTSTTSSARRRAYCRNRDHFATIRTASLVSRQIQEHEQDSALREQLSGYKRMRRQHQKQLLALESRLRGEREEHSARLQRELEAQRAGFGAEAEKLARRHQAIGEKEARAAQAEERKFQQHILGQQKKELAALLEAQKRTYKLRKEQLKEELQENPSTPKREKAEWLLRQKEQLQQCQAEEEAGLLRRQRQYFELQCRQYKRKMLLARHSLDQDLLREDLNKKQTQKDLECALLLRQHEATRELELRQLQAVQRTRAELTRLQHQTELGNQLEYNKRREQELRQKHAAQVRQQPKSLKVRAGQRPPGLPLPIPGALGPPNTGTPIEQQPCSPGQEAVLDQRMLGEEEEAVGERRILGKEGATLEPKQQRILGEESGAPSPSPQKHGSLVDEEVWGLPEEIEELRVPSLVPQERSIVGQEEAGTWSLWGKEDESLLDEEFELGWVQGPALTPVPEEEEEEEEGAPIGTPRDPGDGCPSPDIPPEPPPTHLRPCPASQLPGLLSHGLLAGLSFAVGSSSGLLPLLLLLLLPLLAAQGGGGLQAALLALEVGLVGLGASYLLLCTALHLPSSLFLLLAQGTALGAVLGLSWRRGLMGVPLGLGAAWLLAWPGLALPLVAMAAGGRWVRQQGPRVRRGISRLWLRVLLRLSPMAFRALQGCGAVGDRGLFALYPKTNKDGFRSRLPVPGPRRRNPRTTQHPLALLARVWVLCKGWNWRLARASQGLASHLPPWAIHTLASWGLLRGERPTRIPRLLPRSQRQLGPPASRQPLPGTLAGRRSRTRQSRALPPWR
CLK4 (human), sequence (Q9HAZ1 whole entry, looked up): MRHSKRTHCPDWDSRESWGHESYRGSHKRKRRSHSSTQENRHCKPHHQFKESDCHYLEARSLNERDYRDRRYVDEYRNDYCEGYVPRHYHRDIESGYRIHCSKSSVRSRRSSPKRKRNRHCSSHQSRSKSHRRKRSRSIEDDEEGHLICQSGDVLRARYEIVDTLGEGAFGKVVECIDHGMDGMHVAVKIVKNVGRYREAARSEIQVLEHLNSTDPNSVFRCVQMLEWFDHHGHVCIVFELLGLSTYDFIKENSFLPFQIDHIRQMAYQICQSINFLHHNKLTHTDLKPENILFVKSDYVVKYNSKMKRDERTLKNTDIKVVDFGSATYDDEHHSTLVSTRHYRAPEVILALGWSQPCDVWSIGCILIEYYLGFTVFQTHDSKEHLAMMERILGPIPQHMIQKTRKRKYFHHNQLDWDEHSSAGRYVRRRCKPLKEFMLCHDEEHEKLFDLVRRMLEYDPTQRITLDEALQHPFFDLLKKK
STK24 (human), sequence (Q9Y6E0 whole entry, looked up): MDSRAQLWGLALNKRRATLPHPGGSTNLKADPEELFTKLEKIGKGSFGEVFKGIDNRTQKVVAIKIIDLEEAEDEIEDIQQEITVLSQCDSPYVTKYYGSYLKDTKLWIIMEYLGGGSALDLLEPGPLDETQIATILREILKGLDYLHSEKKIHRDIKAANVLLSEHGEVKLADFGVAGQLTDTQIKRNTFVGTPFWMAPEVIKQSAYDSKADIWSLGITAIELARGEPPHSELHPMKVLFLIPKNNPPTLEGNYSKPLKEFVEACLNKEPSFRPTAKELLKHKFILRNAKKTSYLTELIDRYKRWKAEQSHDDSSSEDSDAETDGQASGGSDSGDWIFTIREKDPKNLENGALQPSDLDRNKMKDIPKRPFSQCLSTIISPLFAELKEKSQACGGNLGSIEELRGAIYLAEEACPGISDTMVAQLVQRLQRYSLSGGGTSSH
CDK1 CCNA2 (human), sequence (P06493 whole entry, looked up): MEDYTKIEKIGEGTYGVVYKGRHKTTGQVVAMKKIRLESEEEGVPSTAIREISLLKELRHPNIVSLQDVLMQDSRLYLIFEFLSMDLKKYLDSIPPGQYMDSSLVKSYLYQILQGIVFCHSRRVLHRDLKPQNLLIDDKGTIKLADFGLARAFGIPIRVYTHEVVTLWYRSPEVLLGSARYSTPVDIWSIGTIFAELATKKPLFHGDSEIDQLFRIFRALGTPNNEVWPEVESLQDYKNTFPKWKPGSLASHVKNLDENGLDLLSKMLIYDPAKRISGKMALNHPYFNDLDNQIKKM
CDK1 CCNA2 (human), sequence (P20248 whole entry, looked up): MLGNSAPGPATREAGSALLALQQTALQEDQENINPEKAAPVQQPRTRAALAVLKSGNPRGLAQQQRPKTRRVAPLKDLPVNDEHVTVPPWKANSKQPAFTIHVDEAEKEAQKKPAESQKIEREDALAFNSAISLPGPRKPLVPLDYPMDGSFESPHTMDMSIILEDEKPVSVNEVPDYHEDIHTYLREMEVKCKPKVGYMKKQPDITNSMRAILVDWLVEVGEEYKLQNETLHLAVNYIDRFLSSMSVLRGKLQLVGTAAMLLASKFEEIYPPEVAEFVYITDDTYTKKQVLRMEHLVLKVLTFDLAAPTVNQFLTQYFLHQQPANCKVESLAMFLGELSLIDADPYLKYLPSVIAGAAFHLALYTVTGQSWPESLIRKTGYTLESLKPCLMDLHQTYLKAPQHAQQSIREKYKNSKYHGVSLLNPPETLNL
MAP4K2 (human), sequence (Q12851 whole entry, looked up): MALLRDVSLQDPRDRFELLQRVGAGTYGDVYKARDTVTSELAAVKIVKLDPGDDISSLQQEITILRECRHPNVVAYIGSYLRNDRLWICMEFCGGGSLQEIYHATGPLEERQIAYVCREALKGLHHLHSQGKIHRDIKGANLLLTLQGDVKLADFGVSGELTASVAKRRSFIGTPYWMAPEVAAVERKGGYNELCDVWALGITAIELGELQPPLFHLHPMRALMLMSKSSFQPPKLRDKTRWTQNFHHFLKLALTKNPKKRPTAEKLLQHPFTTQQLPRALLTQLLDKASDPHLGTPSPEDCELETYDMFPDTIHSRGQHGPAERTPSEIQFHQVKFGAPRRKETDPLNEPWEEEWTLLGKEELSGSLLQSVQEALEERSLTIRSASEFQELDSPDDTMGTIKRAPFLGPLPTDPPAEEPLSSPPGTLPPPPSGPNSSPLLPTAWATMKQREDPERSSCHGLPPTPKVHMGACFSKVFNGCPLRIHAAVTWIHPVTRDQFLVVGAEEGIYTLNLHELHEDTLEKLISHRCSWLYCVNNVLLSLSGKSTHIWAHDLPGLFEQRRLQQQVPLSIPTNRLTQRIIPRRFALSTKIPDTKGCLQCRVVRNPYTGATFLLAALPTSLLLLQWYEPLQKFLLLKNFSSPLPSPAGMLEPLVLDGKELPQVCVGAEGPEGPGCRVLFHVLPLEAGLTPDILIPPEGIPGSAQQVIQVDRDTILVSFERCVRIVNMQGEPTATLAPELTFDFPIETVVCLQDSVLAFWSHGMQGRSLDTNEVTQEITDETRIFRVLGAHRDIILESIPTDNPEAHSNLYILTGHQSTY
TSSK1B (human), sequence (Q9BXA7 whole entry, looked up): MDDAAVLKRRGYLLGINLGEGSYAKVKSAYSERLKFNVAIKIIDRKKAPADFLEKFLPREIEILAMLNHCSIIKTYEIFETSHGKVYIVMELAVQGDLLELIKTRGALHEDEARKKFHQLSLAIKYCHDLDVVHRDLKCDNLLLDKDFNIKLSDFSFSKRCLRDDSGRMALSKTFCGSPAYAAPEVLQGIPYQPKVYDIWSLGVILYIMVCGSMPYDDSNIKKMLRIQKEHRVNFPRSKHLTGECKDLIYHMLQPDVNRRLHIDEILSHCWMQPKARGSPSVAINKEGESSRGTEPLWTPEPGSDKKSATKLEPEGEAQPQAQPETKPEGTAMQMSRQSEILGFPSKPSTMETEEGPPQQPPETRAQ

Row | Structure (SMILES) | residual activity (MAPK8 (human)) [%] | residual activity (MET (human)) [%] | residual activity (LTK (human)) [%] | residual activity (TAOK2 (human)) [%] | residual activity (STK24 (human)) [%] | residual activity (IGF1R (human)) [%] | residual activity (CSNK1E (human)) [%] | residual activity (LCK (human)) [%] | residual activity (FER (human)) [%] | residual activity (AXL (human)) [%] | residual activity (MAP4K2 (human)) [%] | residual activity (PASK (human)) [%] | residual activity (CLK4 (human)) [%] | residual activity (CDK4 CCND3 (human)) [%] | residual activity (ULK1 (human)) [%] | residual activity (STK39 (human)) [%] | residual activity (PRKCD (human)) [%] | residual activity (PTK2B (human)) [%] | residual activity (PAK7 (human)) [%] | residual activity (PRKX (human)) [%] | also measured
1 | CCN(CC)CCCCN1c2ccccc2Oc2ccc(Cl)cc21 | 89.7 | 105 | 98.4 | 95.3 | 90 | 89.4 | 112 | 94.6 | 102 | 95.2 | 110 | 76.6 | 97 | 102 | 99.8 | 83.5 | 95.4 | 99.6 | 116 | 103 | residual activity (CDK7 CCNH MNAT1 (human)): 99%; residual activity (AKT2 (human)): 101%; residual activity (OXSR1 (human)): 89.8%; residual activity (MAPK12 (human)): 97.4%; residual activity (PRKCB2 (human)): 102%; residual activity (MAPKAPK3 (human)): 105%; residual activity (MUSK (human)): 103%; residual activity (SRC (human)): 106%; residual activity (STK16 (human)): 95.2%; residual activity (PAK1 (human)): 87.7%; residual activity (TSSK1B (human)): 96.7%; residual activity (RPS6KB1 (human)): 97.7%; residual activity (MAP3K11 (human)): 99.9%; residual activity (CDK1 CCNA2 (human)): 99.3%; residual activity (BRAF (human)): 98.8%
2 | COc1ccc(OC)c2c(=S)c3ccccc3[nH]c12 | 96.8 | 99.2 | 84.5 | 100 | 78.9 | 97.2 | 90.3 | 94.7 | 84 | 103 | 96.5 | 90.1 | 104 | 95.5 | 114 | 94.4 | 103 | 92.7 | 82.9 | 93.5 | residual activity (CDK7 CCNH MNAT1 (human)): 91.7%; residual activity (AKT2 (human)): 94.6%; residual activity (OXSR1 (human)): 90.6%; residual activity (MAPK12 (human)): 98.1%; residual activity (PRKCB2 (human)): 106%; residual activity (MAPKAPK3 (human)): 87.7%; residual activity (MUSK (human)): 87.3%; residual activity (SRC (human)): 90.6%; residual activity (STK16 (human)): 90%; residual activity (PAK1 (human)): 89.2%; residual activity (TSSK1B (human)): 114%; residual activity (RPS6KB1 (human)): 99.4%; residual activity (MAP3K11 (human)): 107%; residual activity (CDK1 CCNA2 (human)): 96.2%; residual activity (BRAF (human)): 88.5%
3 | Cn1sc(=O)n(Cc2ccccc2)c1=O | 85.5 | 64.2 | 101 | 91 | 105 | 97.1 | 100 | 103 | 101 | 96.9 | 119 | 101 | 99.1 | 114 | 98.9 | 97.9 | 94.1 | 91 | 81.1 | 102 | residual activity (CDK7 CCNH MNAT1 (human)): 96.8%; residual activity (AKT2 (human)): 99.2%; residual activity (OXSR1 (human)): 91.1%; residual activity (MAPK12 (human)): 102%; residual activity (PRKCB2 (human)): 111%; residual activity (MAPKAPK3 (human)): 105%; residual activity (MUSK (human)): 103%; residual activity (SRC (human)): 95%; residual activity (STK16 (human)): 105%; residual activity (PAK1 (human)): 94.1%; residual activity (TSSK1B (human)): 94.4%; residual activity (RPS6KB1 (human)): 98%; residual activity (MAP3K11 (human)): 95.3%; residual activity (CDK1 CCNA2 (human)): 104%; residual activity (BRAF (human)): 98.1%
4 | O=C1Nc2ccccc2/C1=C1\Nc2ccccc2\C1=N/O | 101 | 110 | 62.3 | 96.3 | 62.6 | 80.2 | 46.1 | 77.1 | 67.8 | 82.3 | 57.3 | 94.1 | 59.2 | 98.9 | 78.9 | 90.4 | 95 | 65.8 | 89.3 | 88.8 | residual activity (CDK7 CCNH MNAT1 (human)): 89.9%; residual activity (AKT2 (human)): 92%; residual activity (OXSR1 (human)): 91.7%; residual activity (MAPK12 (human)): 99.5%; residual activity (PRKCB2 (human)): 101%; residual activity (MAPKAPK3 (human)): 103%; residual activity (MUSK (human)): 71.2%; residual activity (SRC (human)): 65.1%; residual activity (STK16 (human)): 54.8%; residual activity (PAK1 (human)): 86.1%; residual activity (TSSK1B (human)): 86%; residual activity (RPS6KB1 (human)): 75.9%; residual activity (MAP3K11 (human)): 17.3%; residual activity (CDK1 CCNA2 (human)): 88.4%; residual activity (BRAF (human)): 105%
5 | CCn1cnc2c(Nc3cccc(Cl)c3)nc(N[C@@H]3CCCC[C@@H]3N)nc21 | 97.6 | 102 | 93.8 | 101 | 79 | 51.8 | 92.1 | 89.5 | 86.8 | 98.7 | 87.4 | 88 | 49.9 | 71.5 | 74.5 | 106 | 91.2 | 85.7 | 64.7 | 102 | residual activity (CDK7 CCNH MNAT1 (human)): 58.4%; residual activity (AKT2 (human)): 108%; residual activity (OXSR1 (human)): 92.3%; residual activity (MAPK12 (human)): 96.6%; residual activity (PRKCB2 (human)): 79.4%; residual activity (MAPKAPK3 (human)): 91.3%; residual activity (MUSK (human)): 79.8%; residual activity (SRC (human)): 54.7%; residual activity (STK16 (human)): 101%; residual activity (PAK1 (human)): 88.8%; residual activity (TSSK1B (human)): 87.4%; residual activity (RPS6KB1 (human)): 97.3%; residual activity (MAP3K11 (human)): 77.6%; residual activity (CDK1 CCNA2 (human)): 60.7%; residual activity (BRAF (human)): 93%
